From ChEMBL document CHEMBL1201862, “PubChem BioAssay data set” (2004)
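Exposure lasted 48 hours, with cells grown in 96-well plates and compounds tested at five concentrations. The concentration for 50% growth inhibition is given as GI50.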 Activity calls are given as the source filed them. Rule as the data show it: active = GI50 up to about 1.1 µM and inactive = higher.

Assays:
Test in all cases: DTP human tumour cell line panel, 48 h
NCI/ADR-RES = tested on: NCI/ADR-RES
SF-295 = tested on: SF-295
RXF 393 = tested on: RXF 393
NCI-H522 = tested on: NCI-H522
SK-MEL-5 = tested on: SK-MEL-5
NCI-H23 = tested on: NCI-H23
RPMI-8226 = tested on: RPMI-8226
DU-145 = tested on: DU-145
SK-MEL-28 = tested on: SK-MEL-28
NCI-H226 = tested on: NCI-H226
HCT-15 = tested on: HCT-15
LOX IMVI = tested on: LOX IMVI
SNB-75 = tested on: SNB-75
SN12C = tested on: SN12C
A498 = tested on: A498
HT-29 = tested on: HT-29
CCRF-CEM = tested on: CCRF-CEM
M14 = tested on: M14
K562 = tested on: K562
SR = tested on: SR

Structure (SMILES) | GI50 (NCI/ADR-RES) | GI50 (SF-295) | GI50 (RXF 393) | GI50 (NCI-H522) | GI50 (SK-MEL-5) | GI50 (NCI-H23) | GI50 (RPMI-8226) | GI50 (DU-145) | GI50 (SK-MEL-28) | GI50 (NCI-H226) | GI50 (HCT-15) [µM] | GI50 (LOX IMVI) | GI50 (SNB-75) | GI50 (SN12C) | GI50 (A498) | GI50 (HT-29) | GI50 (CCRF-CEM) | GI50 (M14) | GI50 (K562) | GI50 (SR)
Cc1cc2nc3c(C#N)c4c(c(Nc5ccc(Cl)cc5)n3c2cc1C)CCC4 | 22.6 µM (inactive) | > 100 µM (inactive) | 17.3 µM (inactive) | 13.6 µM (inactive) | 18.2 µM (inactive) | 26.3 µM (inactive) | 3.66 µM (inactive) | 26.5 µM (inactive) | 22.1 µM (inactive) | 22.9 µM (inactive) | 18.8 | 18.7 µM (inactive) | 30.5 µM (inactive) | 19.4 µM (inactive) | > 100 µM (inactive) | 18.1 µM (inactive) | – | – | – | –
O=C1/C(=C\c2cccc(Oc3ccccc3)c2)SC(c2ccccc2)N1c1cc(Cl)ccc1Cl (stereo not given) | 42.6 µM (inactive) | 24.2 µM (inactive) | 22.8 µM (inactive) | 21 µM (inactive) | 27 µM (inactive) | 33.4 µM (inactive) | 37 µM (inactive) | 36 µM (inactive) | 37.1 µM (inactive) | – | 35.2 | 16.8 µM (inactive) | > 100 µM (inactive) | 18.7 µM (inactive) | > 100 µM (inactive) | 30.8 µM (inactive) | 0.0356 µM (active) | 30.1 µM (inactive) | 21.2 µM (inactive) | –
COc1ccc(C(SCCO)(c2ccccc2)c2ccc(OC)cc2)cc1 | 15.9 µM (inactive) | 4.36 µM (inactive) | 8.24 µM (inactive) | 10.8 µM (inactive) | 8 µM (inactive) | 18.7 µM (inactive) | 24.9 µM (inactive) | 15.5 µM (inactive) | 16.3 µM (inactive) | 13.6 µM (inactive) | 13.5 | 16.5 µM (inactive) | 4.58 µM (inactive) | 14.5 µM (inactive) | 13.9 µM (inactive) | 13.9 µM (inactive) | 12.6 µM (inactive) | 9.31 µM (inactive) | 16.7 µM (inactive) | –
CN(C)c1ccc(/C=C2\Oc3ccccc3C2=O)cc1 | 68.5 µM (inactive) | > 100 µM (inactive) | > 100 µM (inactive) | 90.4 µM (inactive) | > 100 µM (inactive) | > 100 µM (inactive) | > 100 µM (inactive) | > 100 µM (inactive) | > 100 µM (inactive) | > 100 µM (inactive) | > 100 | – | > 100 µM (inactive) | > 100 µM (inactive) | – | > 100 µM (inactive) | > 100 µM (inactive) | > 100 µM (inactive) | 21.5 µM (inactive) | 31 µM (inactive)
C/C(Cl)=N\OC(=O)Nc1ccc(C)cc1 | 19.7 µM (inactive) | 16.6 µM (inactive) | – | – | 17.7 µM (inactive) | 20.7 µM (inactive) | > 10 µM (inactive) | > 10 µM (inactive) | 14.5 µM (inactive) | – | 15.4 | 17.5 µM (inactive) | 12.8 µM (inactive) | 15.7 µM (inactive) | 18.8 µM (inactive) | 22.9 µM (inactive) | 2.04 µM (inactive) | 17.2 µM (inactive) | 9.91 µM (inactive) | 9.64 µM (inactive)
CCOC(=O)c1c(-c2ccc(OC)cc2)c(C#N)c(=S)n(C2OC(COC(C)=O)C(OC(C)=O)C(OC(C)=O)C2OC(C)=O)c1C (stereo not given) | > 100 µM (inactive) | > 100 µM (inactive) | > 100 µM (inactive) | 70.8 µM (inactive) | > 100 µM (inactive) | > 100 µM (inactive) | – | > 100 µM (inactive) | > 100 µM (inactive) | > 100 µM (inactive) | > 100 | > 100 µM (inactive) | 12.7 µM (inactive) | > 100 µM (inactive) | > 100 µM (inactive) | > 100 µM (inactive) | 61.9 µM (inactive) | > 100 µM (inactive) | 38.4 µM (inactive) | > 100 µM (inactive)
CCCCCCCCCCCCCCCCCc1nc(Cl)nc(Cl)c1Cl | > 100 µM (inactive) | > 100 µM (inactive) | > 100 µM (inactive) | > 100 µM (inactive) | 17.3 µM (inactive) | > 100 µM (inactive) | 24.4 µM (inactive) | > 100 µM (inactive) | > 100 µM (inactive) | 15.6 µM (inactive) | > 100 | > 100 µM (inactive) | > 100 µM (inactive) | > 100 µM (inactive) | – | > 100 µM (inactive) | 34.8 µM (inactive) | > 100 µM (inactive) | > 100 µM (inactive) | 52.2 µM (inactive)
Cc1cc(C)n(-c2nc3ccccc3c(=O)n2-c2ccccc2)n1 | > 100 µM (inactive) | > 100 µM (inactive) | > 100 µM (inactive) | > 100 µM (inactive) | > 100 µM (inactive) | > 100 µM (inactive) | – | > 100 µM (inactive) | > 100 µM (inactive) | > 100 µM (inactive) | > 100 | > 100 µM (inactive) | > 100 µM (inactive) | > 100 µM (inactive) | > 100 µM (inactive) | > 100 µM (inactive) | > 100 µM (inactive) | > 100 µM (inactive) | > 100 µM (inactive) | > 100 µM (inactive)
